Assay results taken from patent US10011814B2, “Salt formulations for the fermentation of marine microorganisms” (Triphase Research and Development I Corp., priority 2006, dated 2018).

Columns and labels:
[1] = test system: Salinispora tropica NPS021184; assay: Production of Salinosporamide A and analogs in 42 L fermentor culture; titers by HPLC; settings: for decrease of production: Ex.3, chemically defined salt formulation replacing INSTANT OCEAN, with cobalt
Description: Seed cultures were prepared by inoculating frozen stock of Salinispora tropica NPS021184 into seed medium. For 10 mL seed medium in a 50-mL culture tube, one frozen stock (˜1.5 mL) was used for inoculation. For 100 mL seed medium in a 500-mL Erlenmeyer flask, two frozen stocks (˜3 mL total) were used for inoculation.
The first seed cultures (either 10 mL medium in a 50-mL tube or 100 mL medium in a 500-mL Erlenmeyer flask) were incubated at 250 rpm and 28° C. for 3 to 4 days before inoculating (5% inoculum) into second seed medium with the same salt composition as used for the first seed cultures. After incubating at 250 rpm and 28° C. for 2 days, the second seed cultures (5% inoculum) were inoculated into an additional third seed culture (400 mL medium in 2.8 L Fembach flask) with the same medium, salt composition and incubation time as the second seed cultures, before inoculating into production media in the fermentor (26 L medium in a 42 L B. Braun Biostat-C fermentor).
The production medium was then supplemented with either INSTANT OCEAN® commercial salt formulation or a chemically defined salt formulation based on the salt supplement used in the seed stages. The chemically defined salt formulation consisted of: […]
The production medium for fermentation was also supplemented with CoCl2.6H2O at a concentration of 52 μg/L. No CoCl2.6H2O was added to the production medium in control samples.
3.5 mL of the fermentation culture was mixed with equal volume of EtOAc in an extraction tube to extract the various metabolites from the production culture.
(§1) The mixture was shaken for 1 hr. An aliquot of the extract (1 mL) was removed and dried under a stream of nitrogen. The dried extract was stored at −20° C. freezer before HPLC analysis. The dried extract was resuspended in 320 μL DMSO and injected into HPLC using the 00TF14 method for analysis.
(§2) The production of Salinosporamide A, NPI-0047 and NPI-2065 was monitored by Agilent HP1100 HPLC using an ACE C-18 reversed-phase column (4.6×150 mm), and solvent system consisting of water (0.01% TFA) as solvent A and acetonitrile (0.01% TFA) as solvent B. The elution was started at 100% solvent A for 1 min, 100% solvent A to 35% solvent A gradient in 7 min, held at 35% solvent A for 11 min, 35% solvent A to 100% solvent B in 8 min and held at 100% solvent B for 9 min at a flow rate of 1.5 mL/min with the detector wavelength set at 210 nm and column temperature 35° C.
The first seed culture (100 mL medium) in a 500-mL Erlenmeyer flask was incubated at 250 rpm and 28° C. for 72 hours. 20 mL of the first seed culture was inoculated into second seed culture (400 ml medium) in a 2.8 L Fernbach flask with the same medium as the first seed culture. The second seed culture was incubated at 250 rpm and 28° C. for 48 hours. 200 mL of the […] was inoculated into a B. Braun B-Plus 5 L fermentor containing 4 L third seed medium with the same composition as the first and second seed medium. The thirds seed fermentor culture was incubated at 300 rpm and 28° C. with the airflow rate of 2 L/min for 36 hours. 1.5 L of the third seed culture was inoculated into 26 L production medium in a 42 L B. Braun Biostat-C fermentor.
The production fermentor culture was operated at 200 rpm and 28° C. with the airflow rate of 13 L/min.
as §1, with “3.5 mL of the fermentation culture was mixed with equal volume of EtOAc in an extraction tube to extract the various metabolites from the production culture. The mixture” for “The mixture”, “was shaken on the shaker for 1” for “was shaken for 1”
Alternatively, the production of the compounds can be achieved in a 42 L fermentor system using strain NPS21184. […]

[2] = test system: Salinispora tropica CNB476; assay: Production of Salinosporamide A and analogs in shake flask culture; titers by HPLC; settings: Ex.21, CoCl2·6H2O 208 μg/L seed, 52 μg/L production vs no cobalt
Description: (§3) To determine the production profile of Low Sodium Frozen Stocks cultures of CNB440, CNB476 and NPS21184 grown up in low sodium production medium, 5 mL each of the 48-hour second seed culture samples of CNB476 and NPS21184 was used to inoculate 100 mL of production medium having the same composition as the seed medium in a 500-mL Erlenmeyer flasks. For CNB440, 5 mL of the 72 hour second seed culture sample was used to inoculate 100 mL of production medium having the same composition as the seed medium in a 500-mL Erlenmeyer flasks. The production cultures were incubated at 250 rpm and 28° C.
(§4) 3.5 mL of the fermentation culture was mixed with equal volume of EtOAc in an extraction tube to extract the various metabolites from the production culture. The mixture was shaken on the shaker for 1 hr. […]
as §2, with “C. […]” for “C.”

[3] = test system: Salinispora tropica CNB440; assay: as above; settings: Ex.21, CoCl2·6H2O 208 μg/L seed, 52 μg/L production vs no cobalt
Description: as §3, §4
as §2, with “C. […]” for “C.”

[4] = Ex.3, cobalt in seed and production media with INSTANT OCEAN vs no cobalt

SMILES: C[C@@]12OC(=O)[C@]1([C@@H](O)[C@@H]1C=CCCC1)NC(=O)[C@H]2CCCl [NPI-2065]
- decrease of production [1]: 7.9%
- decrease of production, on average [1, 4]: 23.2%

SMILES: C[C@@]12OC(=O)[C@]1([C@@H](O)[C@@H]1C=CCCC1)NC(=O)[C@@H]2CCCl [Salinosporamide A]
- decrease of production [1]: 8.7%
- increase of production, on average [1, 4]: 14.3%

SMILES: CC[C@H]1C(=O)N[C@@]2([C@@H](O)[C@@H]3C=CCCC3)C(=O)O[C@@]12C [NPI-0047, Salinosporamide B]
- decrease of production [1]: 47.3%
- decrease of production, on average [1, 4]: 48.1%
- reduction of production by cobalt [2]: 52%
- reduction of production by cobalt [3]: 48%
